Reference: US9464308B2, “Method for transcriptional amplification of nucleic acids combining steps of different temperatures” (priority 2011, dated 2016)
Like-named read-outs stand apart in the source and are kept apart here.

Key:
[1] = target: T1, T7 RNA polymerase (Escherichia phage T7, UniProt P00573); assay: Thermal denaturation of T7 RNA polymerase (T7 Tm) by UV spectrophotometry; type: physicochemical; settings: for ΔTm: T7 RNA polymerase at 0.05 mg/ml, PBS 150 mM pH 7.5, versus control without additive (T7 Tm 48.5° C.), Sorbitol 1M, Sucrose 1M, Lactose 0.35M, Raffmose 0.085M, D-Turanose 0.15M; for denaturation temperature of the enzyme (in words): heating T7 RNA polymerase in the presence of the additive
T1 construct: purchased bioMérieux, Marcy l'Etoile, France
Protocol: T7 RNA polymerase was chosen as model enzyme since it is the most sensitive to thermal denaturation; the T7 Tm without additive is 48.5° C.
A UV spectrophotometry technique is used to measure the T7 Tm values. The change in the absorbance of the protein at λ=280 nm as a function of temperature is measured. When the enzyme is heated, the solution becomes cloudy, and aggregates form which correspond to the denatured form. The Tm corresponds to the temperature for which there is 50% of native form and 50% of denatured form (first derivative of the curve absorbance=f(temperature)).
In a polypropylene flask, 4 ml of 300 mM PBS phosphate buffer (Aldrich P-4417, St Quentin Fallavier, France) are mixed with 12μl of T7 RNA polymerase enzyme (bioMérieux, Marcy l'Etoile, France) at 17 mg/ml, i.e. a final protein concentration of 0.05 mg/ml. 500 μl of T7 RNA polymerase solution at 0.05 mg/ml and 500 μl of a concentrated solution of additives (Aldrich, St Quentin Fallavier, France) or of 300 mM PBS for the control are then placed in a quartz cuvette for UV spectrophotometry. After homogenization, the change in absorbance at λ=280 nm is measured as a function of temperature, between 30 and 65° C. at 1° C./min, in order to determine the T7 Tm as previously described (Cary UV spectrophotometer, Varian, Les Ulis, France).

[2] = test system: HIV-1 type B transcript; assay: NASBA HIV-1 2.0 amplification test at 46° C., functional screening of thermostabilizing compounds; type: biochemical; settings: 7.5 cps/reaction HIV-1B transcript, lactose 0.21 M, sorbitol 1.2 M, sucrose 0.6 M
Protocol: The FIG. 1 represent the functional screening of thermostabilizing compounds during NASBA amplifications at 46° C. in the presence of 7.5 cps/reaction of HIV-1B transcript (seven replicas per screening), with in:
A set of compounds with thermostabilizing properties or assumed to have such properties was evaluated in a NASBA HIV-1 2.0 amplification test on a Nuclisens EasyQ™ amplification platform (bioMérieux, Marcy l'Etoile, France) according to the supplier's recommendations. 5 cps to 30 cps of an HIV-1 type B transcript were used as target in each reaction in the presence or absence of the compound to be evaluated.
The obtaining of an amplification in the presence of the compound at a temperature of 46° C. makes it possible to validate the compound as compatible and thermostabilizing for the NASBA reaction.

[3] = target: T1, T7 RNA polymerase; assay: Thermostability (T1/2) at 46° C. of T7 RNA polymerase activity; type: biochemical; settings: environment specific to NASBA, sorbitol 1.48 M
Protocol: In this example, the values of T1/2 of T7 RNA polymerase are determined in the presence or absence of polyols. A description of the measurement method is given below, as are the various reagents used.
Mix buffers B, C and D according to the following proportions with the following Nuclisens™ HIV-1 2.0 reagents (ref.: 285033, bioMérieux, Marcy l'Etoile, France) (for eight reactions): • 36.08 μl buffer A • 6.32 μl buffer B • 25.36 μl buffer C • 173.6 μl buffer D • eight “Nuclisens™ HIV-1 2.0 accusphere reagent” • 960 μl of “Nuclisens™ HIV-1 2.0 diluent reagent”. […]
• 1. The enzymes to be evaluated are diluted in such a way as to have a volumetric activity of 109 kU/ml. • 2. A volume of 20 μl of the enzyme to be evaluated is diluted in 840 μl of solution W1. • 3. 114 μl of the compound to be evaluated are then added to 193.5 μl of enzymatic mix described in point 2 above. • 4. […] 20 μl of solution S are added to 5 n1 of this preincubated mixture in order to measure the rate of increase in fluorescence between 5 and 10 minutes, associated with the residual activity of the enzyme. • 6. […]

[4] = target: T1, T7 RNA polymerase; assay: Maximum preincubation temperature preserving T7 RNA polymerase activity (3 min preincubation); type: biochemical; settings: 3 minutes at 48° C.; 0.7 M sucrose, 0.4 M trehalose, 1.4 M sorbitol
Protocol: FIG. 2 describes the residual activity (%) of T7 RNA polymerase after 3 minutes of preincubation at various temperatures and in the presence of various thermostabilizing compounds.
In this example, the maximum temperature that the T7 RNA polymerase could withstand for a preincubation of 3 minutes in the presence of thermostabilizing compounds is determined.
This step can be likened to a target predenaturation or preincubation phase. The protocol used in this example is similar to that of example 2, with the exception of the fact that the temperatures are variable and that the preincubation time was fixed at 3 minutes.

[5] = target: T1, T7 RNA polymerase; assay: Residual T7 RNA polymerase activity after preincubation at various temperatures, with or without 0.4 M trehalose; type: biochemical; settings: 15 minutes of preincubation at various temperatures
Protocol: FIG. 3A describes the residual activity of T7 RNA polymerase after 15 minutes of preincubation at various temperatures, with or without 0.4 M trehalose.
(§1) Description of the method for measuring the T7 RNA polymerase, RNAse H and AMV-RT activities for example 5: • 1. The T7 RNA polymerase, RNAse H and AMV-RT enzymes are used at volumetric activities of 109 kU/ml, 1 kU/ml and 25 kU/ml respectively. • 2. The T7 RNA polymerase, RNAse H and AMV-RT enzymes are diluted in the solution W1 of example 3 according to the ratios 1/43, 2/191 and 2/27 respectively, in order to mimic the physicochemical environment of the NASBA reaction. • 3. […] The residual activity of each of the T7 RNA polymerase, RNAse H or AMV-RT activities is then measured by adding 5 μl of enzymatic solution to 20 μl of solution S containing the reagents corresponding to each of the activities measured. […]
(§2) • 6. The residual activity of each mutant is expressed as percentage of the fraction of enzyme having not been preincubated and corresponding to 100% activity according to the following calculation: • ρN=slope obtained between 5 and 10 min for the enzyme not preincubated, • ρT=slope obtained between 5 and 10 min for the enzyme preincubated at various temperatures, with or without the presence of the polyol to be studied, and • percentage relative activity=% (ρT/ρN).

[6] = test system: RNAse H; assay: Residual RNAse H activity after preincubation at various temperatures, with or without 0.4 M trehalose; type: biochemical; settings: 25 minutes of preincubation at various temperatures
Protocol: FIG. 3B describes the residual activity of RNAse H after 25 minutes of preincubation at various temperatures, with or without 0.4 M trehalose.
as §1, §2

[7] = test system: AMV-RT; assay: Residual AMV-RT activity after preincubation at various temperatures, with or without 0.4 M trehalose; type: biochemical; settings: 25 minutes of preincubation at various temperatures
Protocol: FIG. 3C describes the residual activity of AMV-RT after 25 minutes of preincubation at various temperatures, with or without 0.4 M trehalose.
as §1, §2

T1 sequence (P00573 whole entry): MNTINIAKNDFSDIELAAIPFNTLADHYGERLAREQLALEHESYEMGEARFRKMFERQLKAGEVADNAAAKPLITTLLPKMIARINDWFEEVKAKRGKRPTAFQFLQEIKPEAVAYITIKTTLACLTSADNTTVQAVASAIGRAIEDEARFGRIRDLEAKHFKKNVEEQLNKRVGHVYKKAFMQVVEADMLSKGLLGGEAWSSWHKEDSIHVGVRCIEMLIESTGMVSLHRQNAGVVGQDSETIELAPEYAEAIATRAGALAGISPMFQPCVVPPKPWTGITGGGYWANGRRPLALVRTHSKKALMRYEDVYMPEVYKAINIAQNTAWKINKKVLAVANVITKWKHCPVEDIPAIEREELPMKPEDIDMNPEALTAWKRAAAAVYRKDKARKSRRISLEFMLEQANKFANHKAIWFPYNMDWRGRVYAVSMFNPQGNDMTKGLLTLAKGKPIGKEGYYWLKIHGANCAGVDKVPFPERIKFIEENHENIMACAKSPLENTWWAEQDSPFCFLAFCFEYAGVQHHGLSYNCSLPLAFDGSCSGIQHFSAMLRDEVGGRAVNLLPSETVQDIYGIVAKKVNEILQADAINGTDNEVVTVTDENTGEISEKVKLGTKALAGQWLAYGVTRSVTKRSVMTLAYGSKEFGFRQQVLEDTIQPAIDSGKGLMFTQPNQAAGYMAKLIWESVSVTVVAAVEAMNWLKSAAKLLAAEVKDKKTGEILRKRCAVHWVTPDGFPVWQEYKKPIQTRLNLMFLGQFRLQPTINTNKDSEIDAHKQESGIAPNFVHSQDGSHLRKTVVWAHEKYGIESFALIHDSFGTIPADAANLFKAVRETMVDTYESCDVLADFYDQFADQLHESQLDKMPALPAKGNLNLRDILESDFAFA

Compound | NASBA amplification at 46° C. (positive signals out of seven replicas) [2] | ΔTm ([1]; read-out: ΔTm) [°C] | denaturation temperature of the enzyme (in words) [1] | T7 RNA polymerase activity preserved [4] [%] | further results
O=C(CO)[C@@H](O[C@H]1O[C@H](CO)[C@@H](O)[C@H](O)[C@H]1O)[C@H](O)[C@H](O)CO [D-Turanose] |  |  |  |  | ΔTm [1]: −4.4 °C
OC[C@H]1O[C@@H](O[C@H]2[C@H](O)[C@@H](O)C(O)O[C@@H]2CO)[C@H](O)[C@@H](O)[C@H]1O (some centres unmarked) [Lactose, lactose] | at least four positive signals out of seven replicas | 5.5 | very significantly increase the denaturation temperature of the enzyme |  | thermostabilizing effect on the T7 RNA polymerase activity (in words) [3]: weak thermostabilizing power
OC[C@H]1O[C@H](OC[C@H]2O[C@H](O[C@]3(CO)O[C@H](CO)[C@@H](O)[C@@H]3O)[C@H](O)[C@@H](O)[C@@H]2O)[C@H](O)[C@@H](O)[C@H]1O [Raffmose, raffinose] |  | 0.5 |  |  | 
OC[C@H]1O[C@@](CO)(O[C@H]2O[C@H](CO)[C@@H](O)[C@H](O)[C@H]2O)[C@@H](O)[C@@H]1O [Sucrose, sucrose] | at least four positive signals out of seven replicas | 5.8 | very significantly increase the denaturation temperature of the enzyme | 100 | 
OC[C@H]1O[C@H](O[C@H]2O[C@H](CO)[C@@H](O)[C@H](O)[C@H]2O)[C@H](O)[C@@H](O)[C@@H]1O [Trehalose, trehalose] |  |  |  | 100 | thermostability of T7 RNA polymerase (in words) [5]: makes it possible to render it more thermostable; thermostabilizing effect on RNAse H activity (in words) [6]: thermostabilizing effect; thermostabilizing effect on AMV-RT activity (in words) [7]: thermostabilizing effect
